Data: publication PMC10535741, “Styrylpyridinium Derivatives for Fluorescent Cell Imaging” (Pharmaceuticals, 2023)
Where two headings read alike, the source gives them in different places.

What was measured:
in vitro [1] = format: cell-based, murine; conditions: mouse
Excerpt: (§1) For selected compounds, 6a–6f, we performed a determination of the cytotoxicity in a wider variety of cancer and non-cancerous cell lines (see Table S2, Supplementary Materials) in order to learn the characteristic features of selectivity or the similarity of biological properties.
(§2) The HT-1080 (human connective tissue fibrosarcoma, ATCC® CCL-121™), MH-22A (mouse hepatocarcinoma, ECACC Cat. No. 96121721), A-549 (human lung carcinoma, ATCC® CCL-185™), NIH3T3 (Swiss Albino mouse embryo fibroblast, ECACC Cat. No. 93061524), Hek293 (human embryonic kidney, ATCC® CRL-1573™), BHK-21 (Syrian hamster kidney, ATCC® CCL-10™), A-431 (human epidermoid carcinoma, ATCC® CRL-1555™), Saos-2 (human osteosarcoma, ATCC® HTB-85™), HeLa (human epitheloid cervix carcinoma, ATCC® CCL-2™), U937 (human myeloid leukaemia, ATCC® CRL-1593.2™), C6 (rat glioma, ATCC® CCL-107™), and B16-F10 (murine melanoma, ATCC® CRL-6475™) cell lines were obtained from the American Type Culture Collection (ATCC) and European Collection of Authenticated Cell Cultures (ECACC).
(§3) HT-1080, MH-22A, A-549, NIH3T3, BHK-21, A-431, HeLa, and B16-F10 cells were cultured in Dulbecco’s Modified Eagle’s Medium (DMEM) with 2 mM glutamine and 10% foetal bovine serum (FBS). Hek293 cells were cultured in Eagle’s Minimum Essential Medium with 10% foetal bovine serum. U937 cells were cultured in RPMI-1640 Medium with 2 mM glutamine and 10% foetal bovine serum. C6 cells were cultured in Ham’s F12 Medium with 2 mM glutamine and 10% foetal bovine serum. Saos-2 cells were cultured in McCoy’s 5a Medium with 2 mM glutamine and 10% foetal bovine serum. The cells were incubated at 37 °C with 5% CO2, 95% air, and complete humidity. Once ~90% confluence was reached, they were detached using 0.05% trypsin/EDTA and counted. The cells were plated at optimally determined densities for the logarithmic phase of growth. These cells were then suspended at a concentration of 4000 cells/well for HT-1080, MH-22A, A-549, NIH3T3, BHK-21, A-431, HeLa, B16-F10, Hek293, and Saos-2 cells and a concentration of 9000 cells/well for U937, C6, Hek293, and GM08402 cells and added onto a 96-well plate. For background absorption, some wells remained cell free, i.e., as a blank control. Cells were incubated for 72 h at 37 °C and 5% CO2 where they were exposed to a media containing serial dilutions of the investigated compounds (n = 3). Cell viability was measured using the 3-(4,5-dimethylthiazol-2-yl)-2,5-diphenyl-tetrazolium bromide (MTT) assay. In brief, after incubating with compounds, the culture medium was removed and fresh medium with 0.2 mg/mL MTT was added to each well of the plate. After incubation (3 h, 37 °C, 5% CO2), the medium with MTT solution was removed and replaced with 200 µL DMSO and 25 µL Sorenson’s glycine buffer (glycine 0.1 M, NaCl 0.1 M, pH: 10.5 with 0.1 M NaOH). The plate was shaken for 15 min at room temperature and the optical density (OD) of the wells was determined using a multichannel spectrophotometer (Thermo Scientific Multiskan EX) at 540 nm. The quantity of the control cells was taken in calculations as 100%. The IC50 value was calculated using the program Graph Pad Prism® 3.0. […]

in vitro [2] = format: cell-based, human; conditions: human, MTT, 72 h
Excerpt: as §1, §2
(§4) HT-1080, MH-22A, A-549, NIH3T3, BHK-21, A-431, HeLa, and B16-F10 cells were cultured in Dulbecco’s Modified Eagle’s Medium (DMEM) with 2 mM glutamine and 10% foetal bovine serum (FBS). Hek293 cells were cultured in Eagle’s Minimum Essential Medium with 10% foetal bovine serum. U937 cells were cultured in RPMI-1640 Medium with 2 mM glutamine and 10% foetal bovine serum. C6 cells were cultured in Ham’s F12 Medium with 2 mM glutamine and 10% foetal bovine serum. Saos-2 cells were cultured in McCoy’s 5a Medium with 2 mM glutamine and 10% foetal bovine serum. The cells were incubated at 37 °C with 5% CO2, 95% air, and complete humidity. Once ~90% confluence was reached, they were detached using 0.05% trypsin/EDTA and counted. The cells were plated at optimally determined densities for the logarithmic phase of growth. These cells were then suspended at a concentration of 4000 cells/well for HT-1080, MH-22A, A-549, NIH3T3, BHK-21, A-431, HeLa, B16-F10, Hek293, and Saos-2 cells and a concentration of 9000 cells/well for U937, C6, Hek293, and GM08402 cells and added onto a 96-well plate. For background absorption, some wells remained cell free, i.e., as a blank control. Cells were incubated for 72 h at 37 °C and 5% CO2 where they were exposed to a media containing serial dilutions of the investigated compounds (n = 3). Cell viability was measured using the 3-(4,5-dimethylthiazol-2-yl)-2,5-diphenyl-tetrazolium bromide (MTT) assay. In brief, after incubating with compounds, the culture medium was removed and fresh medium with 0.2 mg/mL MTT was added to each well of the plate. After incubation (3 h, 37 °C, 5% CO2), the medium with MTT solution was removed and replaced with 200 µL DMSO and 25 µL Sorenson’s glycine buffer (glycine 0.1 M, NaCl 0.1 M, pH: 10.5 with 0.1 M NaOH). The plate was shaken for 15 min at room temperature and the optical density (OD) of the wells was determined using a multichannel spectrophotometer (Thermo Scientific Multiskan EX) at 540 nm. The quantity of the control cells was taken in calculations as 100%. The IC50 value was calculated using the program Graph Pad Prism® 3.0.
(§5) The HT-1080 (human connective tissue fibrosarcoma, ATCC® CCL-121™), MH-22A (mouse hepatocarcinoma, ECACC Cat.No. 96121721), A-549 (human lung carcinoma, ATCC® CCL-185™), NIH 3T3 (mouse Swiss Albino embryo fibroblast, ECACC Cat.No. 93061524), Hek293 (human embryonic kidney, ATCC® CRL-1573™), BHK-21 (hamster Syrian kidney, ATCC® CCL-10™), A-431 (human epidermoid carcinoma, ATCC® CRL-1555™), Saos-2 (human oste osarcoma, ATCC® HTB-85™) HeLa (human epitheloid cervix carcinoma, ATCC® CCL-2™), U937 (human myeloid leukaemia, ATCC® CRL-1593.2™), C6 (rat glioma, ATCC® CCL-107™), B16-F10 (murine melanoma, ATCC® CRL-6475™) cell lines were obtained from American Type Culture Collection (ATCC) and European Collection of Authenticated Cell Cultures […]
(§6) Table S2. […]

[3] = Photoluminescence quantum yield (PLQY); format: physicochemical; conditions: DMSO solution
Experimental: Photoluminescence quantum yield (PLQY) values for the DMSO solution of compounds 6a–g were measured (Table 3, entry 4). […] The PLQY values for the SP derivatives 6f,g (each with an N-dimethylaminophenyl moiety) were 1.6% and 1.4%, respectively. The PLQY value for the SP derivative 6c (with a 4-dimethylaminophenyl moiety) was only 0.1%. The PLQY values for the SP derivatives 6d,e (each with a julolidinyl moiety) were 0.5% and 0.7%, respectively. Previously, we designed naphthalene-2-yl)vinyl)pyridinium groups containing 1,4-dihydropyridine amphiphile, for which the PLQY value for the EtOH solution was 1% [20].

in vitro [4] = format: cell-based, rat; conditions: rat
Excerpt: as §1, §2, §3

[5] = system: BHK-21 (Syrian hamster kidney); experiment: MTT cytotoxicity assay, BHK-21; format: cell-based
Excerpt: as §1, §2, §4, §5, §6

[6] = system: NIH3T3 (Swiss Albino mouse embryo fibroblast); experiment: in vitro; format: cell-based
Excerpt: as §1, §2, §4, §5, §6

[7] = cancer cell line, MTT, 72 h, read-out: Cytotoxicity IC50 B16-F10
[8] = cancer cell line, read-out: Cytotoxicity IC50 A-431
[9] = cancer cell line, read-out: Cytotoxicity IC50 A-549
[10] = cancer cell line, read-out: Cytotoxicity IC50 HeLa
[11] = cancer cell line, read-out: Cytotoxicity IC50 Saos-2
[12] = cancer cell line, read-out: Cytotoxicity IC50 U937
[13] = non-cancerous cell line, read-out: Cytotoxicity IC50 Hek-293
[14] = cancer cell line, MTT, 72 h, read-out: Cytotoxicity IC50 C6

Compound: CCCCCCCCCCCCCCCC[n+]1ccc(C=CC=Cc2cc3c4c(c2)CCCN4CCC3)cc1.[Br-] [Compound 6e, 1-hexadecyl-4-(4-(2,3,6,7-tetrahydro-1H,5H-pyrido[3,2,1-ij]quinolin-9-yl)buta-1,3-dien-1-yl)pyridin-1-ium bromide]
- IC50 at 72 h (in vitro [1]; [7]): 2.9 µg/mL
- IC50 at 72 h (in vitro [2]; [8]): 1.9 µg/mL
- IC50 at 72 h (in vitro [2]; [9]): 3 µg/mL
- IC50 at 72 h (in vitro [2]; [10]): 1.3 µg/mL
- IC50 at 72 h (in vitro [2]; [11]): 3.6 µg/mL
- IC50 at 72 h (in vitro [2]; [12]): 2.4 µg/mL
- IC50 at 72 h (in vitro [2]; [13]): 1.5 µg/mL
- PLQY, % [3]: 0.7%
- IC50 at 72 h (in vitro [4]; [14]): 3.4 µg/mL

Compound: CCCCCCCCCCCC[n+]1ccc(C=Cc2cc3c4c(c2)CCCN4CCC3)cc1.[Br-] [Compound 6d, 1-dodecyl-4-(2-(2,3,6,7-tetrahydro-1H,5H-pyrido[3,2,1-ij]quinolin-9-yl)vinyl)pyridin-1-ium bromide]
- IC50 at 72 h (in vitro [1]; [7]): 0.113 µg/mL
- IC50 at 72 h (in vitro [2]; [8]): 0.098 µg/mL
- IC50 at 72 h (in vitro [2]; [9]): 0.055 µg/mL
- IC50 at 72 h (in vitro [2]; [10]): 0.055 µg/mL
- IC50 at 72 h (in vitro [2]; [11]): 0.79 µg/mL
- IC50 at 72 h (in vitro [2]; [12]): 0.044 µg/mL
- IC50 at 72 h (in vitro [2]; [13]): 0.012 µg/mL
- PLQY, % [3]: 0.5%
- IC50 at 72 h (in vitro [4]; [14]): 0.129 µg/mL

Compound: CCCCCCCCCCCCCCCC[n+]1ccc(C=Cc2cc(OC)c(OC)c(OC)c2)cc1.[Br-] [Compound 6b]
- Cytotoxicity IC50 BHK-21 [5]: 1.11 µg/mL
- PLQY, % [3]: 12.2%
- Cytotoxicity IC50 NIH3T3 [6]: 1.02 µg/mL

Compound: CCCCCCCCCCCCCCCC[n+]1ccc(C=CC=Cc2ccc(OC)cc2)cc1.[Br-] [Compound 6c, 1-hexadecyl-4-(4-(4-methoxyphenyl)buta-1,3-dien-1-yl)pyridin-1-ium bromide]
- IC50 at 72 h (in vitro [1]): 0.49 µg/mL
- PLQY, % [3]: 0.1%
- IC50 at 72 h (in vitro [4]): 0.6 µg/mL

Compound: CCCCCCCCCCCC[n+]1ccc(C=Cc2cc(OC)c(OC)c(OC)c2)cc1.[Br-] [Compound 6a, 4-(3,4,5-trimethoxystyryl)-N-dodecylpyridinium bromide]
- IC50 at 72 h (in vitro [1]; [7]): 0.8 µg/mL
- IC50 at 72 h (in vitro [2]; [8]): 0.87 µg/mL
- IC50 at 72 h (in vitro [2]; [9]): 0.87 µg/mL
- IC50 at 72 h (in vitro [2]; [10]): 0.59 µg/mL
- IC50 at 72 h (in vitro [2]; [11]): 0.37 µg/mL
- IC50 at 72 h (in vitro [2]; [12]): 1.01 µg/mL
- IC50 at 72 h (in vitro [2]; [13]): 0.22 µg/mL
- times lower cytotoxicity of 6a compared with 6d, BHK-21 ([5]; Syrian hamster, 72 h): 12.5 times
- PLQY, % [3]: 15.1%
- IC50 at 72 h (in vitro [4]; [14]): 0.86 µg/mL
- times lower cytotoxicity of 6a compared with 6d, NIH3T3 ([6]; mouse, 72 h): 21.9 times
